US6350764B2, “Heteroaryl aminoguanidines and alkoxyguanidines and their use as protease inhibitors” (3-Dimensional Pharmaceuticals, Inc., priority 1997, dated 2002)
Counter-ions that a name gives are not always drawn.

Key:
Type in all cases: biochemical
[1] = target: T1, bovine trypsin (Bos taurus, UniProt P00760); test: In vitro inhibition of purified enzymes: trypsin, hydrolysis of N-benzoyl-Phe-Val-Arg-p-nitroanilide
T1 construct: Purified bovine trypsin was diluted into assay buffer; purchased Sigma T8642
T1 sequence (P00760 24-246): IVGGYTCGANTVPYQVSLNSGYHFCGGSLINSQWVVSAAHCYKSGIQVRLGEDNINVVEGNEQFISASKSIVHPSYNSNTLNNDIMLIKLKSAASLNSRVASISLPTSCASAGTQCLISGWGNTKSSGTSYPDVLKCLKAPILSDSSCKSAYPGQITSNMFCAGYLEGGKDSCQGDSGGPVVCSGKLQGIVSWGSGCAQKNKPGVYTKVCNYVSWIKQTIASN
Source text: (§1) Reagents: All buffer salts were obtained from Sigma Chemical Company (St. Louis, Mo.), and were of the highest purity available. The enzyme substrates, N-benzoyl-Phe-Val-Arg-p-nitroaniide (Sigma B7632) N-benzoyl-Ile-Glu-Gly-Arg-p-nitroanilide hydrochloride (Sigma B2291), N-p-Tosyl-Gly-Pro-Lys-p-nitroanilide (Sigma T6140), N-succinyl-Ala-Ala-Pro-Phe-p-nitroanilide (Sigma S7388) and N-CBZ-Val-Gly-Arg-p-nitroanilide (Sigma C7271) were obtained from Sigma. N-succinyl-Ala-Ala-Pro-Arg-p-nitroanilide (BACHEM L-1720) and N-succinyl-Ala-Ala-Pro-Val-p-nitroanilide (BACHEM L-1770) were obtained from BACHEM (King of Prussia, Pa.).
(§2) Human α-thrombin, human factor Xa and human plasmin were obtained from Enzyme Research Laboratories (South Bend, Id.). Bovine α-chymotrypsin (Sigma C4129), bovine trypsin (Sigma T8642) and human kidney cell urokinase (Sigma U5004) were obtained from Sigma. Human leukocyte elastase was obtained from Elastin Products (Pacific, Mo.).
(§3) Ki Determinations: All assays are based on the ability of the test compound to inhibit the enzyme catalyzed hydrolysis of a peptide p-nitroanilide substrate. In atypical Ki determination, substrate is prepared in DMSO, and diluted into an assay buffer consisting of 50 mM HEPES, 200 mM NaCl, pH 7.5. The final concentrations for each of the substrates is listed below. In general, substrate concentrations are lower than the experimentally determined value for Km. Test compounds are prepared as a 1.0 mg/ml solution in DMSO. Dilutions are prepared in DMSO yielding 8 final concentrations encompassing a 200 fold concentration range. Enzyme solutions are prepared at the concentrations listed below in assay buffer.
(§4) In a typical Ki determination, into each well of a 96 well plate is pipetted 280 mL of substrate solution, 10 mL of test compound solution, and the plate allowed to thermally equilibrate at 37° C. in a Molecular Devices plate reader for>15 minutes. Reactions were initiated by the addition of a […] aliquot of enzyme and the absorbance increase at 405 nm is recorded for 15 minutes. Data corresponding to less than 10% of the total substrate hydrolysis were used in the calculations. The ratio of the velocity (rate of change in absorbance as a function of time) for a sample containing no test compound is divided by the velocity of a sample containing test compound, and is plotted as a function of test compound concentration. The data are fit to a linear regression, and the value of the slope of the line calculated. The inverse of the slope is the experimentally determined Ki value.
Trypsin: Trypsin activity was assessed as the ability to hydrolyze N-benzoyl-Phe-Val-Arg-p-nitroanilide. […] Final DMSO concentration was 4.3%. Purified bovine trypsin was diluted into assay buffer to a concentration of 120 nM. Final reagent concentrations were: [Trypsin]=4 nM, [N-benzoyl-Phe-Val-Arg-p-nitroanilide]=13 mM.

[2] = target: T2, bovine α-chymotrypsin (Bos taurus, UniProt P00766); test: In vitro inhibition of purified enzymes: chymotrypsin, hydrolysis of N-succinyl-Ala-Ala-Pro-Phe-p-nitroanilide; conditions: read-out: % Inhibition Chymo.
T2 construct: Bovine α-chymotrypsin (Sigma C4129); purchased Sigma C4129
Source text: as §1, §2, §3, §4
Chymotrypsin: Chymotrypsin activity was assessed as the ability to hydrolyze N-succinyl-Ala-Ala-Pro-Phe-p-nitroanilide. […] Final DMSO concentration was 4.3%. Purified bovine chymotrypsin was diluted into assay buffer to a concentration of 81 nM. Final reagent concentrations were: [Chymotrypsin]=2.7 nM, [N-succinyl-Ala-Ala-Pro-Phe-p-nitroanilide]=14 mM.

[3] = target: T3, human leukocyte elastase (Homo sapiens, UniProt P08246); test: In vitro inhibition of purified enzymes: elastase, hydrolysis of N-succinyl-Ala-Ala-Pro-Val-p-nitroanilide
T3 construct: purchased Elastin Products (Pacific, Mo.)
T3 sequence (P08246 30-247 limits assumed): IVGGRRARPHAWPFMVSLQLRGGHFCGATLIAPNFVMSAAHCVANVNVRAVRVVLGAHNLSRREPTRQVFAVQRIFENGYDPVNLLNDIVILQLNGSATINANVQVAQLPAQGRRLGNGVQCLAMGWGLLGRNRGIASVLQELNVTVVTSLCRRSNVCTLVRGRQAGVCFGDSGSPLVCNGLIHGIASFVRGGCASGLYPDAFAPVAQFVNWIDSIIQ
Source text: as §1, §2, §3, §4
Elastase: Elastase activity was assessed as the ability to hydrolyze N-succinyl-Ala-Ala-Pro-Val-p-nitroanilide. Substrate solutions were prepared at a concentration of 19 mM (19 mM<<Km=89 mM) in assay buffer. Final DMSO concentration was 4.3%. Purified human leukocyte elastase was diluted into assay buffer to a concentration of 750 nM. Final reagent concentrations were: [Elastase]=25 nM, [N-succinyl-Ala-Ala-Pro-Val-p-nitroanilide]=19 mM.

[4] = target: T4, human factor Xa (Homo sapiens, UniProt P00742); test: In vitro inhibition of purified enzymes: Factor X [FXa], hydrolysis of N-benzoyl-Ile-Glu-Gly-Arg-p-nitroanilide; conditions: 37° C., pH 7.5
T4 construct: purchased Enzyme Research Laboratories (South Bend)
Source text: as §1, §2, §3, §4
Factor X [FXa]: FXa activity was assessed as the ability to hydrolyze the substrate N-benzoyl-Ile-Glu-Gly-Arg-p-nitroanilide hydrochloride. […] Final DMSO concentration was 4.3%. Purified activated human Factor X was diluted into assay buffer to a concentration of 300 nM. Final reagent concentrations were: [FXa]=10 nM, [N-benzoyl-Ile-Glu-Gly-Arg-p-nitroanilide hydrochloride]=51 mM.

[5] = target: T5, human plasmin (Homo sapiens, UniProt P00747); test: In vitro inhibition of purified enzymes: plasmin, hydrolysis of N-p-Tosyl-Gly-Pro-Lys-p-nitroanilide
T5 construct: Purified human plasmin was diluted into assay buffer; purchased Enzyme Research Laboratories (South Bend)
Source text: as §1, §2, §3, §4
Plasmin: Plasmin activity was assessed as the ability to hydrolyze the N-p-Tosyl-Gly-Pro-Lys-p-nitroanilide. Substrate solutions were prepared at a concentration of 37 mM (37 mM<<Km=243 mM) in assay buffer. Final DMSO concentration was 4.3%. Purified human plasmin was diluted into assay buffer to a concentration of 240 nM. Final reagent concentrations were: [Plasmin]=8 nM, [N-p-Tosyl-Gly-Pro-Lys-p-nitroanilide]=37 mM.

[6] = target: T6, human α-thrombin (Homo sapiens, UniProt P00734); test: In vitro inhibition of purified enzymes: thrombin, hydrolysis of N-succinyl-Ala-Ala-Pro-Arg-p-nitroanilide; conditions: 37° C., pH 7.5
T6 construct: Purified human a-thrombin was diluted into assay buffer; purchased Enzyme Research Laboratories (South Bend)
Source text: as §1, with “Sigma.” for “Sigma. N-succinyl-Ala-Ala-Pro-Arg-p-nitroanilide (BACHEM L-1720) and N-succinyl-Ala-Ala-Pro-Val-p-nitroanilide (BACHEM L-1770) were obtained from BACHEM (King of Prussia, Pa.).”
as §2
as §3, with “In atypical Ki determination, substrate is prepared in DMSO, and diluted into an assay buffer consisting of 50 mM HEPES, 200 mM NaCl, pH 7.5.” left out
as §4, with “Reactions” for “In a typical Ki determination, into each well of a 96 well plate is pipetted 280 mL of substrate solution, 10 mL of test compound solution, and the plate allowed to thermally equilibrate at 37° C. in a Molecular Devices plate reader for>15 minutes. Reactions”
Thrombin: Thrombin activity was assessed as the ability to hydrolyze the substrate N-succinyl-Ala-Ala-Pro-Arg-p-nitroanilide. […] Final reagent concentrations were: [thrombin]=0.5 nM, [substrate N-succinyl-Ala-Ala-Pro-Arg-p-nitroanilide]=32 mM.

T4 sequence (P00742 235-488 limits assumed): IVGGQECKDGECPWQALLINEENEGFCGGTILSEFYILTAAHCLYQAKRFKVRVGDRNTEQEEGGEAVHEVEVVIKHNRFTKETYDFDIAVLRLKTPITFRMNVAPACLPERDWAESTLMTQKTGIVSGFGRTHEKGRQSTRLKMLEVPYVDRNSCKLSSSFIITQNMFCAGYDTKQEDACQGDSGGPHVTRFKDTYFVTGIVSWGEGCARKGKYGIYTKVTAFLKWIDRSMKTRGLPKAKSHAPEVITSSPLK
T4 sequence (P00742 41-179 partner limits assumed): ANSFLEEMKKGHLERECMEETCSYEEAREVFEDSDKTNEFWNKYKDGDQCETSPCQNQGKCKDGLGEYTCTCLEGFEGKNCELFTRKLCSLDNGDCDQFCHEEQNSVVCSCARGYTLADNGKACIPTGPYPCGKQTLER
T5 sequence (P00747 581-810 limits assumed): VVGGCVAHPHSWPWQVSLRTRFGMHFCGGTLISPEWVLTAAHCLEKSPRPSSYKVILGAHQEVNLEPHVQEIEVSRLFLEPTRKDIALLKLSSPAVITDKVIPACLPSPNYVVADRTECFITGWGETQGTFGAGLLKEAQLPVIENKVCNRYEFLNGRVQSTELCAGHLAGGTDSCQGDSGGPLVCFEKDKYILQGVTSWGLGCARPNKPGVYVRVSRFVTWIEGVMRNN
T5 sequence (P00747 97-580 partner limits assumed): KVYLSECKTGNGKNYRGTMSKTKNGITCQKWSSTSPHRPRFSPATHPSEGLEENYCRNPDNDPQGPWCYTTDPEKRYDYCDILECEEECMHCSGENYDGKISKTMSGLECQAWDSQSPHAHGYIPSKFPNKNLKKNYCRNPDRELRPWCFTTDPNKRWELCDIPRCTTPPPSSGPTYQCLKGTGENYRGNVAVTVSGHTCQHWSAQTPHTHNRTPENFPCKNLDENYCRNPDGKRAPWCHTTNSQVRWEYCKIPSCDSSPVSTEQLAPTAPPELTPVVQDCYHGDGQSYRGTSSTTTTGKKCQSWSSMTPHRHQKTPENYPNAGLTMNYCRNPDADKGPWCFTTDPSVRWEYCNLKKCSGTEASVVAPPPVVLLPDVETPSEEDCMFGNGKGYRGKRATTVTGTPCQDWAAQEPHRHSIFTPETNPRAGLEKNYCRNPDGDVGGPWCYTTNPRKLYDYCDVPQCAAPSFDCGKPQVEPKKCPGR

SMILES | inhibition at 12 µM ([1]; at 12,000 nM) [%] | inhibition at 12 µM ([2]; at 12,000 nM) [%] | inhibition at 12 µM ([3]; at 12,000 nM) [%] | Ki [4] [nM] | inhibition at 12 µM ([5]; at 12,000 nM) [%] | Ki [6] [nM] | Ki ([1]; 37° C., pH 7.5) [nM] | inhibition at 18 µM ([2]; at 18,000 nM) [%] | inhibition at 18 µM ([3]; at 18,000 nM) [%] | inhibition at 18 µM ([5]; at 18,000 nM) [%]
Cc1ccc(NS(=O)(=O)c2ccccc2[N+](=O)[O-])c(=O)n1CC(=O)NCCONC(=N)N [Example 71, 3-(2-Nitrophenylsulfonyl)amino-6-methyl-1-[(2-guanidinooxyethyl)aminocarbonylmethyl]-2-pyridinone trifluoroacetate] | 0 | 0 | 0 | 8700 | 0 | 580 | – | – | – | –
Cc1ccc(NS(=O)(=O)c2ccc3cc(Cl)ccc3c2)c(=O)n1CC(=O)NCCONC(=N)N [Example 85, 3-(6-Chloronaphthalene-2-sulfonyl)amino-6-methyl-1-[(2-guanidinooxyethyl)aminocarbonylmethyl]-2-pyridinone trifluoroacetate] | – | – | – | 1300 | – | 290 | 1600 | 0 | 0 | 0
